The record followed here is ChEMBL document CHEMBL1201862, “PubChem BioAssay data set” (2004).

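Tested at 5 concentrations; 48 h exposure; 96-well plates; endpoints linearly interpolated, else capped at highest concentration. At the GI50, growth is halved.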 The source made the active and inactive calls. Cut-off read from the data, not from the text of the source: active = GI50 up to about 1.1 µM and inactive = higher.

Holding throughout (test): DTP human tumour cell line panel, 48 h
For test [1], the system named is U-251.
The test system of test [2] is RPMI-8226.
For test [3], the system named is MDA-MB-435.
Test [4] has as its system NCI/ADR-RES.
Test [5] deals with 786-0.
Test [6] concerns NCI-H522.
Test [7] relates to HOP-92.
Test [8] concerns MDA-N.
The test system of test [9] is Malme-3M.
For test [10], the system named is SF-268.
Test [11] concerns OVCAR-3.
Test [12] concerns MOLT-4.
Test [13] relates to HCT-116.
The subject of test [14] is IGROV-1.
The subject of test [15] is MCF7.
In test [16] the test system is UACC-257.
In test [17] the test system is HOP-62.
The test system of test [18] is PC-3.
For test [19], the system named is ACHN.
Test [20] deals with COLO 205.

Turning to `CCOC(=O)c1cnc(N(C)C)nc1SC(=N)N`, the GI50 in test [1], in [2], in test [3], in test [4], in [5] and in test [6] was > 100 µM (inactive) in each case. Moreover, the GI50 is > 100 µM (inactive) in [7]; > 100 µM (inactive) in [8]; > 100 µM (inactive) in [9]; > 100 µM (inactive) in test [10]; > 100 µM (inactive) in [11]; 49.2 µM (inactive) in test [12]. The GI50 in test [13], in test [14], in test [15], in test [16], in test [17] and in [18] was > 100 µM (inactive) each time. The GI50 in [19] and in [20] was > 100 µM (inactive) in each case.

In the case of `CN(C)/C=N/S(=O)(=O)c1nn2c(C=O)c(-c3cc4ccccc4oc3=O)nc2s1`, the GI50 in test [1] is 8.09 µM (inactive); in test [2] it was 1.39 µM (inactive); in test [3], 5.25 µM (inactive); in test [4], 16.4 µM (inactive); in test [5] it was 1.92 µM (inactive); in test [6] it was 1.16 µM (inactive). Also, the GI50 in test [7] was 4.08 µM (inactive); in [8], 4.46 µM (inactive); in test [9] it was 1.95 µM (inactive); in test [10], 11.1 µM (inactive); in test [11] it was 3.08 µM (inactive); in [12], 1.89 µM (inactive). The GI50 in test [13] was 1.79 µM (inactive); in test [14], 9.4 µM (inactive); in [15] it was 3.54 µM (inactive); in [16], 11.8 µM (inactive); in test [17], > 30.2 µM (inactive); in test [18], 12.4 µM (inactive). The GI50 in test [19] was 1.77 µM (inactive); in [20], 1.91 µM (inactive).

As to `O=NN1CCNC1Cc1ccccc1` (stereo not given), the GI50 in [1] was 33.3 µM (inactive); in test [2], 70 µM (inactive); in test [3], > 100 µM (inactive); in test [4], > 100 µM (inactive); in test [5] it was 52.8 µM (inactive); in [6] it was 85.5 µM (inactive). The GI50 was > 100 µM (inactive) in test [7]; > 100 µM (inactive) in test [8]; > 100 µM (inactive) in test [9]; 43.4 µM (inactive) in test [10]; > 100 µM (inactive) in test [11]; 27 µM (inactive) in [12]. The GI50 in test [13] is 71.6 µM (inactive); in [14] it was > 100 µM (inactive); in [15] it was 37.2 µM (inactive); in test [16] it was > 100 µM (inactive); in test [17] it was 58.5 µM (inactive); in test [18], > 100 µM (inactive). Besides, the GI50 in [19] is 37.6 µM (inactive); in test [20], > 100 µM (inactive).

For `CCOC(=O)NC(Nc1ccc(C(=O)O)cc1)(C(F)(F)F)C(F)(F)F`, the GI50 in [1], in [2], in [3], in [4], in [5] and in test [6] was > 100 µM (inactive) each time. Further, the GI50 in [7], in [8], in [9], in [10], in [11] and in test [12] was > 100 µM (inactive) throughout. Moreover, the GI50 in test [13], in test [14], in test [15], in test [16], in test [17] and in [18] was > 100 µM (inactive) each time. The GI50 in test [19] and in test [20] was > 100 µM (inactive) throughout.

On to `CC(=O)NC(Cc1ccccc1)NC(=O)O` (stereo not given), for which the GI50 in test [1], in [2], in [3], in test [4], in test [5] and in test [6] was > 100 µM (inactive) in each case. Further, the GI50 in test [7], in test [8], in test [9], in test [10], in test [11] and in [12] was > 100 µM (inactive) each time. The GI50 in [13], in test [14], in [15], in test [16], in test [17] and in test [18] was > 100 µM (inactive) throughout. The GI50 in test [19] and in test [20] was > 100 µM (inactive) in each case.

As for `COC1OC(COC(=O)c2cc(O)c(O)c(O)c2)C(OC(=O)c2cc(O)c(O)c(O)c2)C(OC(=O)c2cc(O)c(O)c(O)c2)C1OC(=O)c1cc(O)c(O)c(O)c1` (stereo not given), the GI50 is 10.6 µM (inactive) in test [1]; 28.3 µM (inactive) in test [2]; 12.9 µM (inactive) in test [3]; 29.2 µM (inactive) in test [4]; 13.3 µM (inactive) in test [5]; 15 µM (inactive) in [6]. Further, the GI50 in test [7] is 74 µM (inactive); in test [8], 27.8 µM (inactive); in [9], 27.9 µM (inactive); in [10], 27 µM (inactive); in test [11] it was 29.9 µM (inactive); in test [12] it was 11.8 µM (inactive). For the same compound, the GI50 in test [13] is 33 µM (inactive); in test [14], 27.4 µM (inactive); in [15] it was > 100 µM (inactive); in test [16], > 100 µM (inactive); in test [17], 7.33 µM (inactive); in test [18] it was 50.7 µM (inactive). In addition, the GI50 is 19 µM (inactive) in test [19] and 39.4 µM (inactive) in test [20].

Regarding `O=C(O)C(CO)NC(=O)C1C(C(=O)O)C(c2ccccc2[N+](=O)[O-])C=C(c2ccco2)N1c1ccncc1` (stereo not given), the GI50 in test [1] is 2.34 µM (inactive); in test [2] it was 1.58 µM (inactive); in test [3] it was 5.16 µM (inactive); in test [4], 9.23 µM (inactive); in [5] it was 3.08 µM (inactive); in [6], 4.61 µM (inactive). Moreover, the GI50 was 12.1 µM (inactive) in [7]; 2.84 µM (inactive) in [8]; 13.4 µM (inactive) in test [9]; 12.6 µM (inactive) in test [10]; 6.28 µM (inactive) in test [11]; 2.44 µM (inactive) in test [12]. The GI50 in test [13] was 1.67 µM (inactive); in test [14] it was 2.04 µM (inactive); in [15], 1.99 µM (inactive); in test [16], 3.61 µM (inactive); in [17], 12.2 µM (inactive); in [18], 9.35 µM (inactive). The figures for the GI50 in test [19] and in test [20] were 1.91 µM (inactive) and 4.62 µM (inactive), respectively.

As to `O=S(=O)(O)c1ccc(Nc2ccnc3cc(Cl)ccc23)cc1`, the GI50 in test [1], in [2], in test [3], in test [4], in test [5] and in [6] was > 100 µM (inactive) in each case. The GI50 in test [7], in test [8], in [9], in test [10], in test [11] and in test [12] was > 100 µM (inactive) throughout. The GI50 in test [13], in test [14], in [15], in test [16], in test [17] and in test [18] was > 100 µM (inactive) in each case. In addition, the GI50 in test [19] and in [20] was > 100 µM (inactive) throughout.

Turning to `O=C1/C(=C/c2ccc(F)cc2)CNC/C1=C\c1ccc(F)cc1`, the GI50 in test [1] was 0.41 µM (active); in test [2] it was 0.275 µM (active); in test [3], 2.49 µM (inactive); in test [4], 2.95 µM (inactive); in [5], 0.762 µM (active); in [6] it was 1.53 µM (inactive). The GI50 in [7] is 3.61 µM (inactive); in test [8], 1.95 µM (inactive); in test [9], 3.28 µM (inactive); in test [10], 0.818 µM (active); in [11] it was 1.65 µM (inactive); in test [12], 2.11 µM (inactive). Further, the GI50 in test [13] was 0.27 µM (active); in test [14], 0.667 µM (active); in test [15] it was 0.813 µM (active); in test [16], 3.76 µM (inactive); in test [17] it was 1.78 µM (inactive); in test [18], 1.79 µM (inactive). The results for the GI50 in test [19] and in [20] were 1.71 µM (inactive) and 1.44 µM (inactive), respectively.

As for `N#CC(C#N)=Cn1c(=S)[nH]c2ccccc21`, the GI50 in test [1], in test [2], in test [3], in test [4], in [5] and in test [6] was > 100 µM (inactive) throughout. In addition, the GI50 in test [7] is 77.8 µM (inactive); in test [8] it was > 100 µM (inactive); in [9], > 100 µM (inactive); in test [10], > 100 µM (inactive); in [11] it was > 100 µM (inactive); in test [12], > 100 µM (inactive). In addition, the GI50 in test [13], in test [14], in test [15], in test [16], in test [17] and in [18] was > 100 µM (inactive) in each case. For the same compound, the GI50 in test [19] and in test [20] was > 100 µM (inactive) throughout.

For orientation: GI50 means the concentration at which growth is held to half of that of the control.
